# Data taken from patent US8791132B2, “Compounds and methods for treatment of hypertension” (Medivation Technologies, Inc., priority 2011, dated 2014).
# Where “and” joins values, the source holds several entries; their conditions need not be identical. Equal values may be shown once. Read-outs that look alike come from different tables or passages of the source.
# Legend:
# [1] = biological target: T1, human recombinant adrenergic α2B receptor (Homo sapiens, UniProt P18089); experiment: Radioligand binding, adrenergic α2B ([3H]Rauwolscine); details: for Ki: read-out: Ki α2B
# T1 construct: expressed in transfected cells; host or cells: CHO-K1
# T1 sequence (P18089 1-450): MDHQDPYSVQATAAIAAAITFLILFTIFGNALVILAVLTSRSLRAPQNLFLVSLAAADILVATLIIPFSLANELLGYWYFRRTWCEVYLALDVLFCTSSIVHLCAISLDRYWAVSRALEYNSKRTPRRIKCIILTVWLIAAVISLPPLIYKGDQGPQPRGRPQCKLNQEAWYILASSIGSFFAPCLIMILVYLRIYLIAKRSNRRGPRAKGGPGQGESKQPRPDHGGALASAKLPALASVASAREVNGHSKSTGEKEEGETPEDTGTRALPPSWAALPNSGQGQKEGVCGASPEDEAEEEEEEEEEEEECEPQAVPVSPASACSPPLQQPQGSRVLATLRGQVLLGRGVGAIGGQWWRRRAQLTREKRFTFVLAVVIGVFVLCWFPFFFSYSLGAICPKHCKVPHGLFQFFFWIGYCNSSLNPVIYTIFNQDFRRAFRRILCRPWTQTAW
# Description: To evaluate in radioligand binding assays the activity of compounds of the invention, human recombinant adrenergic α2B receptor expressed in Chinese hamster ovary (CHO) K1 cells (Uhlen, S. et al, Eur. J. Pharmacol. 343(1):93, 1998) in a modified Tris-HCl buffer (50 mM Tris-HCl, pH 7.4, 12.5 mM MgCl2, 1 mM EDTA, 0.2% BSA) was used. Compounds of the invention were incubated with 2.5 nM [3H]Rauwolscine for 60 min at 25° C. Non-specific binding was estimated in the presence of 10 μM Prazosin. Receptor proteins were filtered and washed, the filters were then counted to determine [3H]Rauwolscine specifically bound. […] Compounds of the invention were tested in this biochemical assay and percent inhibition of specific binding was determined. Biochemical assay results are presented as the percent inhibition of specific binding in Table B1.
# [2] = biological target: T2, human recombinant adrenergic α2A receptor (Homo sapiens, UniProt P08913); experiment: Radioligand binding, adrenergic α2A ([3H]MK-912)
# T2 construct: expressed in transfected cells; host or cells: insect Sf9 cells
# T2 sequence (P08913 1-465): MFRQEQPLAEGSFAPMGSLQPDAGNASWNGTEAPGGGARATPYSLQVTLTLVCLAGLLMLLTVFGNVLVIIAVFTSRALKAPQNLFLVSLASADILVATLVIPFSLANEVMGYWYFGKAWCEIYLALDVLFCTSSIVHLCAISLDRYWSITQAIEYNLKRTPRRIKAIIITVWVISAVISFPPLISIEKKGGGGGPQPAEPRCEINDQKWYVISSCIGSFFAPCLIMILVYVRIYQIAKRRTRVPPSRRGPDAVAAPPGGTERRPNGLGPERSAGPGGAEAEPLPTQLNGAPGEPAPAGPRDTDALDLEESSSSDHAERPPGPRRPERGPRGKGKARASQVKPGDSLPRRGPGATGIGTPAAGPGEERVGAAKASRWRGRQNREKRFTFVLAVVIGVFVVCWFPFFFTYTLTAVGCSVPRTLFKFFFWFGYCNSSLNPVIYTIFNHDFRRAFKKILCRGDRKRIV
# Description: To evaluate in radioligand binding assays the activity of compounds of the invention, human recombinant adrenergic α2A receptor expressed in insect Sf9 cells (Uhlen, S. et al, J. Pharmacol. Exp. Ther. 271:1558, 1994) in a modified Tris-HCl buffer (50 mM Tris-HCl, pH 7.4, 12.5 mM MgCl2, 2 mM EDTA) was used. Compounds of invention were incubated with 1 nM [^3H]MK-912 for 60 min at 25° C. MK912 is (2S-trans)-1,3,4,5′,6,6′,7,12b-octahydro-1′,3′-dimethyl-spiro[2H-benzofuro[2,3-a]quinolizine-2,4′(1′H)-pyrimidin]-2′(3′H)-one hydrochloride. Non-specific binding was estimated in the presence of 10 μM WB-4101 (2-(2,6-Dimethoxyphenoxyethyl)aminomethyl-1,4-benzodioxane hydrochloride). Receptor proteins were filtered and washed, the filters were then counted to determine [^3H]MK-912 specifically bound. […] Compounds of the invention were tested in this biochemical assay and percent inhibition of specific binding was determined. Biochemical assay results are presented as the percent inhibition of specific binding in Table B1.
# [3] = biological target: T3, rat adrenergic α1B receptor (Rattus norvegicus, UniProt P15823); experiment: Radioligand binding, adrenergic α1B ([3H]Prazosin)
# T3 construct: rat adrenergic α1B receptor obtained from Wistar Rat liver; from tissue; host or cells: Wistar rat liver
# T3 sequence (P15823 1-515): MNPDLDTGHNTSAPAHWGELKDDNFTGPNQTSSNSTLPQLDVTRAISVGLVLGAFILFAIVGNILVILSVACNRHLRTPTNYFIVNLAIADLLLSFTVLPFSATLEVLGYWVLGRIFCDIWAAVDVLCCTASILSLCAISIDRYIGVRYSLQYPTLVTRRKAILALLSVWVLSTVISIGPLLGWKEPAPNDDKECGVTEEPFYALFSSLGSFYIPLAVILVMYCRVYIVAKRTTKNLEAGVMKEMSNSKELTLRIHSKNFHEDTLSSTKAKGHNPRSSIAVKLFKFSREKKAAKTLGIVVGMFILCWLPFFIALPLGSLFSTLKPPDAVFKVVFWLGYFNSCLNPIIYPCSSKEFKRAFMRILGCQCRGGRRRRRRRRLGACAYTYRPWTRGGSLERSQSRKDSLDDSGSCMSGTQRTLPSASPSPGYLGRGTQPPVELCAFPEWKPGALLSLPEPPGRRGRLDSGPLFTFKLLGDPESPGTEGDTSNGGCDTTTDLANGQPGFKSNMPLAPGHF
# Description: To evaluate in radioligand binding assays the activity of compounds of the invention, rat adrenergic α1B receptor obtained from Wistar Rat liver (Garcia-S'ainz, J. et al, Biochem. Biophys. Res. Commun. 186:760, 1992; Michel, A. et al, Br. J. Pharmacol. 98:883, 1989) in a modified Tris-HCl buffer (50 mM Tris-HCl buffer, pH 7.4, 0.5 mM EDTA) was used. Compounds of the invention were incubated with 0.25 nM [^3H]Prazosin for 60 min at 25° C. Non-specific binding was estimated in the presence of 10 μM phentolamine. Receptor proteins were filtered and washed, the filters were then counted to determine [^3H]Prazosin specifically bound. […] Compounds of the invention were tested in this biochemical assay and percent inhibition of specific binding was determined. Biochemical assay results are presented as the percent inhibition of specific binding in Table B1.
# [4] = compound at 0.03 μM, [3H]Rauwolscine, repeat assays, each datapoint shown, 0.03 µM
# [5] = compound at 0.1 μM, [3H]MK-912, repeat assays, each datapoint shown, 0.1 µM
# [6] = compound at 0.1 μM, [3H]Prazosin, repeat assays, each datapoint shown, 0.1 µM
# [7] = compound at 0.1 μM, [3H]MK-912, repeat datapoints each shown, 0.1 µM
# [8] = compound at 0.1 μM, [3H]Prazosin, repeat datapoints each shown, 0.1 µM
# [9] = compound at 0.1 μM, [3H]MK-912, repeat assays, each datapoint shown, read-out: Percentage inhibition of ligand binding, Adrenergic α2A
# [10] = compound at 0.1 μM, [3H]Prazosin, repeat assays, each datapoint shown, read-out: Percentage inhibition of ligand binding, Adrenergic α1B
# [11] = read-out: Percentage inhibition of ligand binding, Adrenergic α2A (0.1 μM), compound at 0.1 μM, [3H]MK-912, repeat datapoints each shown
# [12] = read-out: Percentage inhibition of ligand binding, Adrenergic α1B (0.1 μM), compound at 0.1 μM, [3H]Prazosin, repeat datapoints each shown
"Percentage inhibition of ligand binding, Adrenergic α2B [1, 4]","Percentage inhibition of ligand binding, Adrenergic α2A [2, 5] [%]","Percentage inhibition of ligand binding, Adrenergic α1B [3, 6] [%]",Structure (SMILES),further results
77%,11,61,Cc1ccc2c(c1)c1c(n2CC(O)c2ccncc2)CC2CCCCN2C1 (racemic) [75a],
43%,5,16,Cc1ccc2c(c1)c1c(n2CC(O)c2ccncc2)CC2CCCCN2C1 (racemic) [75b],
11%,−2,59,Cc1ccc2c(c1)c1c(n2CC(O)c2ccncc2)CC2CCCCN2C1 (racemic) [75c],
102%,49,26,Cc1ccc2c(c1)c1c(n2CC(O)c2ccncc2)CC2CCCCN2C1 (racemic) [75d],
,,,"Cc1ccc2c(c1)c1c(n2CC(N=[N+]=[N-])c2ccncc2)CCN(C)C1 (racemic) [V-1b, 5-(2-azido-2-(pyridin-4-yl)ethyl)-2,3,4,5-tetrahydro-2,8-dimethyl-1H-pyrido[4,3-b]indole]","Percentage inhibition of ligand binding, Adrenergic α2B (0.03 μM) ([1]; compound at 0.03 μM, [3H]Rauwolscine, repeat datapoints each shown, 0.03 µM): 102%; Percentage inhibition of ligand binding, Adrenergic α2A (0.1 μM) [2, 7]: 29%; Percentage inhibition of ligand binding, Adrenergic α1B (0.1 μM) [3, 8]: 57%"
26% and 30%,,,"Cc1ccc2c(c1)c1c(n2CC(O)c2ccncc2)CCN(C)C1 (single isomer, unassigned) [3a]","inhibition at 0.1 µM ([1]; compound at 0.1 μM, [3H]Rauwolscine, repeat assays, each datapoint shown, read-out: Percentage inhibition of ligand binding, Adrenergic α2B): 62%; Ki [1]: 27.4 nM; inhibition at 0.1 µM [2, 9]: 16%; inhibition at 0.03 µM ([3]; compound at 0.03 μM, [3H]Prazosin, repeat assays, each datapoint shown, read-out: Percentage inhibition of ligand binding, Adrenergic α1B): 18%"
46%,7,58,"CN1CCc2c(c3cc(Cl)ccc3n2CC(O)c2ccncc2)C1 (single isomer, unassigned) [4b]",
29% and 38%,0,,"Cc1ccc2c(c1)c1c(n2CC(C)(O)c2cccnc2)CCN(C)C1 (single isomer, unassigned) [5a, 1-(1,2,3,4-tetrahydro-2,8-dimethylpyrido[4,3-b]indol-5-yl)-2-(pyridin-3-yl)propan-2-ol]","Percentage inhibition of ligand binding, Adrenergic α2B ([1]; compound at 0.1 μM, [3H]Rauwolscine, repeat assays, each datapoint shown, 0.1 µM): 57%; Ki [1]: 35 nM; inhibition at 0.1 µM [3, 10]: 18%"
59%,1,28,"CN1CCc2c(c3cc(Cl)ccc3n2CC(O)c2cccnc2)C1 (single isomer, unassigned) [7a]",
74%,25,37,"CN1CCc2c(c3cc(Cl)ccc3n2CC(O)c2cccnc2)C1 (single isomer, unassigned) [7b]",
,29,73,"Cc1ccc2c(c1)c1c(n2CC(O)c2ccc(C(=O)N(C)C)cc2)CCN(C)C1 (single isomer, unassigned) [52b]",
,,,"CN1CCc2c(n(CC(O)c3ccc(F)c(F)c3)c3ccc(Cl)cc23)CC1 (single isomer, unassigned) [339a]","Percentage inhibition of ligand binding, Adrenergic α2A ([2]; 0.1 μM compound, 0.1 µM): 37%; inhibition at 0.1 µM ([3]; 0.1 μM compound, read-out: Percentage inhibition of ligand binding, Adrenergic α1B): 13%"
,,,"Cc1ccc2c(c1)c1c(n2CC(O)c2cn[nH]c2)CCN(C)C1 (single isomer, unassigned) [II-106b]","Percentage inhibition of ligand binding, Adrenergic α2A (0.1 μM) [2, 7]: 8%; Percentage inhibition of ligand binding, Adrenergic α1B (0.1 μM) [3, 8]: 31%"
,,,"Cc1ccc2c(c1)c1c(n2CC(C)(O)c2cccnc2)CCN(C)C1C (single isomer, unassigned) [II-152d]","Percentage inhibition of ligand binding, Adrenergic α2A (0.1 μM) [2, 7]: 8%; Percentage inhibition of ligand binding, Adrenergic α1B (0.1 μM) [3, 8]: 5%"
,,,Cc1ccc2c(c1)c1c(n2CC(O)c2ccncc2)CCN2CCCC12 (stereo not shown) [129a],"inhibition at 0.1 µM [2, 11]: 46%; inhibition at 0.1 µM [3, 12]: 73%"
,,,Cc1ccc2c(c1)c1c(n2CC(c2ccncc2)N(C)C)CCN(C)C1 (stereo not shown) [150b],"inhibition at 0.1 µM [2, 11]: 5%; inhibition at 0.1 µM [3, 12]: 7%"
,,,Cc1ccc2c(c1)c1c(n2C(C)C(O)c2ccncc2)CCN(C)C1 (stereo not shown) [II-98a],"inhibition at 0.1 µM ([2]; 0.1 μM compound, read-out: Percentage inhibition of ligand binding, Adrenergic α2A): 12%; Percentage inhibition of ligand binding, Adrenergic α1B ([3]; 0.1 μM compound): 33%"
,,,Cc1ccc2c(c1)c1c(n2CC(C)(O)c2ccncc2)CCN(C)CC1 (stereo not shown) [II-134b],"Percentage inhibition of ligand binding, Adrenergic α2A (0.1 μM) ([2]; compound at 0.1 μM, [3H]MK-912, repeat datapoints each shown): 6%; Percentage inhibition of ligand binding, Adrenergic α1B (0.1 μM) ([3]; compound at 0.1 μM, [3H]Prazosin, repeat datapoints each shown): 65%"
,,,Cc1ccc2c(c1)c1c(n2CC(O)c2ccncc2)CN(C)CC1 (stereo not shown) [compound 8],"inhibition at 0.1 µM [2, 9]: 23%; inhibition at 0.1 µM [3, 10]: 58%"
